Assay results reported in patent US9035071B2, “Compounds acting at multiple prostaglandin receptors giving a general anti-inflammatory response” (Allergan, Inc., priority 2011, dated 2015).

How the values were obtained:
Type in all cases: cell-based
[1] = target: T1, human recombinant prostanoid FP receptor (Homo sapiens, UniProt P43088); assay: FLIPR Ca2+ signaling, PG antagonist activity, FP; conditions: antagonism of standard agonist 17-phenyl-PGF2α, HEK-293 EBNA stable cells
T1 construct: expressed in transfected cells
T1 sequence (P43088 whole entry): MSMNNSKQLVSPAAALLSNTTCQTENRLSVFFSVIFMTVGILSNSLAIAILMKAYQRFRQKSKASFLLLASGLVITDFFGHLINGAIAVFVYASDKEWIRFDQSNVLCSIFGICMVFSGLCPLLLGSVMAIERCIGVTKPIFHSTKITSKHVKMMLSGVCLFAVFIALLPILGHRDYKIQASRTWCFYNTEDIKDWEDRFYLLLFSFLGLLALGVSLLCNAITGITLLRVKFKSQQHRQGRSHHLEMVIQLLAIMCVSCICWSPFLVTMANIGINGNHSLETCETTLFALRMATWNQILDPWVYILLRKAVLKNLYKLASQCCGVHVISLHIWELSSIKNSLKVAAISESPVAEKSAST
Experimental: (§1) The above compounds were tested for PG antagonist activity as follows using human recombinant prostanoid receptor (DP1, EP1-4, FP, IP and TP) stable cell lines:
(§2) In order to measure the response of Gs and Gi coupled prostanoid receptors as a Ca^2+ signal, chimeric G protein cDNAs were used. Stable cell lines over-expressing human prostanoid DP1, EP1-4, FP, IP, and TP receptors were established as follows:
(§3) Briefly, human prostanoid DP1, EP2, and EP4 receptor cDNAs were co-transfected with chimeric Gqs cDNA containing a haemagglutanin (HA) epitope; human prostanoid EP3 receptors were co-transfected with chimeric Gqi-HA; human EP1, FP, IP, and TP receptor cDNAs were expressed with no exogenous G-proteins. Gqs and Gqi chimeric cDNAs (Molecular Devices, Sunnyvale, Calif., U.S.A.), as well as cDNAs of prostanoid receptors, were cloned into a pCEP4 vector with a hygromycin B selection marker. Transfection into HEK-293 EBNA (Epstein-Barr virus nuclear antigen) cells was achieved by the FuGENE 6 transfection Reagent (Roche Applied Science, Indianapolis, Ind., USA). Stable transfectants were selected according to hygromycin resistance. Because Gqs and Gqi contained an HA epitope, G-protein expression was detected by Western blotting analysis using anti-mouse HA monoclonal antibody and horseradish peroxidase (HRP)-conjugated secondary antibody, while functional expression of prostanoid receptors was detected by FLIPR screening (Matias et al., 2004). These stable cell lines were validated using previously published antagonists at 10 μM against serial dilutions of standard agonists by FLIPR functional assays for Ca^2− Signaling (as described below).
(§4) Ca^2+ signaling studies were performed using a FLIPR TETRA system (Molecular Devices, Sunnyvale, Calif., USA) in the 384-format. This is a high-throughput instrument for cell-based assays to monitor Ca^2+ signaling associated with GPCRs and ion channels. Cells were seeded at a density of 5×10^4 cells/well in BioCoat poly-D-lysine coated, black wall, clear bottom 384-well plates (BD Biosciences, Franklin lakes, N.J., USA) and allowed to attach overnight in an incubator at 37° C. The cells were then washed twice with HBSS-HEPES buffer (Hanks' balanced salt solution without bicarbonate and phenol red, 20 mM HEPES, pH 7.4) using an ELx405 Select CW Microplate Washer (BioTek, Winooski, Vt., USA). After 60 min of dye-loading in the dark using the Ca^2+-sensitive dye Fluo-4AM (Invitrogen, Carlsbad, Calif., USA), at a final concentration of 2×10^−6M, the plates were washed 4 times with HBSS-HEPES buffer to remove excess dye and leaving 50 μl of buffer in each well. The plates were then placed in the FLIPR TETRA instrument and allowed to equilibrate at 37° C. AGN-211377 was added in a 25 μl volume to each well to give final concentrations of 0.1 μM, 0.3 μM, 1 μM, 3 μM, 10 μM, and 30 μM; or 0.067 μM, 0.1 μM, 0.2 μM, 0.3 μM, 0.67 μM, and 1 μM for cells over-expressing TP receptors. After 4.5 minutes, a 7-point serial dilution of the standard agonist for the corresponding receptor, in a 25 μl volume was injected at the final concentrations from 10^−11M to 10^−5M in 10-fold serial dilution increments for cells expressing human recombinant DP1, EP1, EP2, EP3, EP4, FP, and IP receptors. The dose range for the standard agonist for human recombinant TP receptors was from 10^−12M to 10^−6M. HBSS-HEPES buffer was used as the negative control for the standard agonists. Cells were excited with LED (light emitting diode) excitation at 470-495 nm and emission was measured through an emission filter at 515-575 nm. Assay plates were read for 3.5 minutes using the FLIPR^TETRA. The peak increase in fluorescence intensity was recorded for each well. On each plate, negative controls, dose response of positive controls, and co-treatments of antagonist-agonist for each dose were in triplicates. Standard agonists were as follows: DP=BW 245C, EP1-EP4=PGE2, FP=17-phenyl-PGF2α, IP=Cicaprost, and TP=U-46619. […]

[2] = target: T2, human recombinant prostanoid DP1 receptor (Homo sapiens, UniProt Q13258); assay: FLIPR Ca2+ signaling, PG antagonist activity, DP; conditions: antagonism of standard agonist BW 245C, HEK-293 EBNA stable cells with chimeric Gqs
T2 construct: expressed in transfected cells; co-transfected with chimeric Gqs-HA
T2 sequence (Q13258 1-359): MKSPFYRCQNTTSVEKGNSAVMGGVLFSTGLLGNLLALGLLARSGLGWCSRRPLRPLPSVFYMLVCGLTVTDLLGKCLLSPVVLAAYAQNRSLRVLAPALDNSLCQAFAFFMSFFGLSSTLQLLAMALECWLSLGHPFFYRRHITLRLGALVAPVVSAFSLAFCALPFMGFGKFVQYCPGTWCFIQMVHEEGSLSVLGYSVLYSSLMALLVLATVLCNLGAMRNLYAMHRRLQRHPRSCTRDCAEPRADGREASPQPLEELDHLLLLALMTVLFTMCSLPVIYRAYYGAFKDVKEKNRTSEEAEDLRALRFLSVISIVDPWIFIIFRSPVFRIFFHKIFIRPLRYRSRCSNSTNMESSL
Experimental: as §1, §2, §3, §4

[3] = target: T3, human recombinant prostanoid EP2 receptor (Homo sapiens, UniProt P43116); assay: FLIPR Ca2+ signaling, PG antagonist activity, EP2; conditions: antagonism of standard agonist PGE2, HEK-293 EBNA stable cells with chimeric Gqs
T3 construct: expressed in transfected cells; co-transfected with chimeric Gqs-HA
T3 sequence (P43116 whole entry): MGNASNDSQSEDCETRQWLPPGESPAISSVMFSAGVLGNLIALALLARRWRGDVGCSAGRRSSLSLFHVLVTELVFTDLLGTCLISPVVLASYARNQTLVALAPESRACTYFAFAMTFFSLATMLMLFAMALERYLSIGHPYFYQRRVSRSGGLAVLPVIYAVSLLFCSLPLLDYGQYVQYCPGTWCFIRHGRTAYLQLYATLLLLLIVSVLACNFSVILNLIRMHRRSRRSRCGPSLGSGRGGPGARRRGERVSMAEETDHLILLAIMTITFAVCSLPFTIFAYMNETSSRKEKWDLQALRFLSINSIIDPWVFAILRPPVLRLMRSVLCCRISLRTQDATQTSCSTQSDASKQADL
Experimental: as §1, §2, §3, §4

[4] = target: T4, human recombinant prostanoid IP receptor (Homo sapiens, UniProt P43119); assay: FLIPR Ca2+ signaling, PG antagonist activity, IP; conditions: antagonism of standard agonist Cicaprost, HEK-293 EBNA stable cells
T4 construct: expressed in transfected cells
T4 sequence (P43119 whole entry): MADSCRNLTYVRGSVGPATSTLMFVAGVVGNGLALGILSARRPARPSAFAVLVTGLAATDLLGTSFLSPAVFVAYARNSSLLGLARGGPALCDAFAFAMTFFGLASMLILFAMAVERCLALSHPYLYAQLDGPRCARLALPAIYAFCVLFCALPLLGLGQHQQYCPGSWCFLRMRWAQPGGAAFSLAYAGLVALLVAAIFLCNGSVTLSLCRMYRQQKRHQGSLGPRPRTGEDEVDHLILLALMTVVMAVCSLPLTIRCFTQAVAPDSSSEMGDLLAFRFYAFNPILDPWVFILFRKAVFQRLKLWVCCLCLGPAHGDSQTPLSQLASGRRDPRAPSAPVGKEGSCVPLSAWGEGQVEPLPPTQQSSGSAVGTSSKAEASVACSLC
Experimental: as §1, §2, §3, §4

[5] = target: T5, human recombinant prostanoid TP receptor (Homo sapiens, UniProt P21731); assay: FLIPR Ca2+ signaling, PG antagonist activity, TP; conditions: antagonism of standard agonist U-46619, HEK-293 EBNA stable cells
T5 construct: expressed in transfected cells
T5 sequence (P21731 1-343): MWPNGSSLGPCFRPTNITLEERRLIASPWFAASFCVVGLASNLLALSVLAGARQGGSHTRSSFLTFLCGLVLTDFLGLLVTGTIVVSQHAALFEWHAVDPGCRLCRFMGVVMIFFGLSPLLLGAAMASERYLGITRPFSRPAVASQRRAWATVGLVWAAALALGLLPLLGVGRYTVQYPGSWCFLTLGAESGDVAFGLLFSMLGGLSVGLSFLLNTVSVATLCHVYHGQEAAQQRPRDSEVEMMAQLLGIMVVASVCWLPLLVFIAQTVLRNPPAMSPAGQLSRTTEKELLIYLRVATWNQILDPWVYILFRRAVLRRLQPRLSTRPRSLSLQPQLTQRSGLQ
Experimental: as §1, §2, §3, §4

| Structure (SMILES) | Kb [1] [nM] | Kb [2] [nM] | Kb [3] [µM] | Kb [4] [µM] | Kb [5] [nM] |
| --- | --- | --- | --- | --- | --- |
| CCC(CC)COc1ccc(Br)cc1Cn1ncc(CC(=O)O)c1C [Example 1, {1-[5-bromo-2-(2-ethyl-butoxy)-benzyl]-5-methyl-1H-pyrazol-4-yl}-acetic acid] | 2700 | 400 | ≥ 10 | 4.8 | 3 |
| CCC(CC)COc1ccc(Br)cc1Cn1ncc(C(=O)O)c1C [Example 2, 1-[5-bromo-2-(2-ethyl-butoxy)-benzyl]-5-methyl-1H-pyrazole-4-carboxylic acid] | 80 | 600 | ≥ 10 | 2.4 | 12 |
| CCC(CC)COc1ccc(Br)cc1Cn1cc(C(=O)O)c(C)n1 [Example 3] | 400 | 1100 | ≥ 10 | 1.4 | 30 |
| CCC(CC)COc1ccc(Cl)cc1Cn1cc(C(=O)O)cn1 [Example 4, 1-[5-chloro-2-(2-ethyl-butoxy)-benzyl]-1H-pyrazole-4-carboxylic acid] | 2000 | 1400 | ≥ 10 | 3.1 | 100 |
| CCC(CC)COc1ccc(Cl)cc1Cn1nc(C)c(C(=O)O)c1C [Example 5, 1-[5-chloro-2-(2-ethyl-butoxy)-benzyl]-3,5-dimethyl-1H-pyrazole-4-carboxylic acid] | 700 | 350 | ≥ 10 | 0.6 | 18 |
| CCCc1nn(Cc2cc(Cl)ccc2OCC(CC)CC)cc1C(=O)O [Example 6, 1-[5-chloro-2-(2-ethyl-butoxy)-benzyl]-3-propyl-1H-pyrazole-4-carboxylic acid] | ≥ 10000 | 5600 | 8.6 | ≥ 10 | 500 |
| CCCc1c(C(=O)O)cnn1Cc1cc(Cl)ccc1OCC(CC)CC [Example 7, 1-[5-chloro-2-(2-ethyl-butoxy)-benzyl]-5-propyl-1H-pyrazole-4-carboxylic acid] | ≥ 10000 | ≥ 10000 | ≥ 10 | 1.8 | 150 |
| CCC(CC)COc1ccc(C(F)(F)F)cc1Cn1ncc(C(=O)O)c1C [Example 8, 1-[2-(2-ethyl-butoxy)-5-trifluoromethyl-benzyl]-5-methyl-1H-pyrazole-4-carboxylic acid] | 200 | 1400 | ≥ 10 | ≥ 10 | 45 |
| CCC(CC)COc1ccc(C(F)(F)F)cc1Cn1cc(C(=O)O)c(C)n1 [Example 9, 1-[2-(2-ethyl-butoxy)-5-trifluoromethyl-benzyl]-3-methyl-1H-pyrazole-4-carboxylic acid] | 7200 | 3900 | ≥ 10 | ≥ 10 | 440 |
| CCC(CC)COc1ccc(Cl)cc1Cn1ncc(C(=O)O)c1C [Example 10, 1-[5-chloro-2-(2-ethyl-butoxy)-benzyl]-5-methyl-1H-pyrazole-4-carboxylic acid] | 190 | 940 | ≥ 10 | 1.3 | 6 |
| Cc1c(C(=O)O)cnn1Cc1cc(Cl)ccc1OCC(C)C [Example 11, 1-(5-chloro-2-isobutoxy-benzyl)-5-methyl-1-pyrazole-4-carboxylic acid] | 500 | 4550 | ≥ 10 | 8.3 | 80 |
| Cc1c(C(=O)O)cnn1Cc1cc(Cl)ccc1OCC1CCCC1 [Example 12, 1-(5-chloro-2-cyclopentylmethoxy-benzyl)-5-methyl-1H-pyrazole-4-carboxylic acid] | 110 | 2500 | ≥ 10 | 2.65 | 40 |
| Cc1c(C(=O)O)cnn1Cc1cc(Br)ccc1OCC(C)C [Example 13, 1-(5-bromo-2-isobutoxy-benzyl)-5-methyl-1H-pyrazole-4-carboxylic acid] | 70 | 3500 | ≥ 10 | 7.7 | 20 |
| Cc1c(C(=O)O)cnn1Cc1cc(Br)ccc1OCC(C)(C)C [Example 14, 1-[5-bromo-2-(2,2-dimethyl-propoxy)-benzyl]-5-methyl-1H-pyrazole-4-carboxylic acid] | 90 | 3400 | ≥ 10 | ≥ 10 | 20 |
| CCC(CC)COc1ccc(OC(F)(F)F)cc1Cn1ncc(C(=O)O)c1C [Example 15, 1-[2-(2-ethyl-butoxy)-5-trifluoromethoxy-benzyl]-5-methyl-1H-pyrazole-4-carboxylic acid] | 140 | 780 | ≥ 10 | ≥ 10 | 8 |
| CCC(CC)COc1ccc(Br)cc1Cn1ncc(C(=O)O)c1N [Example 16, 5-amino-1-[5-bromo-2-(2-ethyl-butoxy)-benzyl]-1H-pyrazole-4-carboxylic acid] | 200 | 1600 | ≥ 10 | 5.1 | 50 |
